Measured values from US10376476B2, “Panicein compounds, compositions and uses thereof” (CENTRE NATIONAL DE LA RECHERCHE SCIENTIFIQUE, priority 2014, dated 2019).
pEC50: −log10 of the molar value.

Tests used:
Format in all cases: cell-based
A375 cells = assay: Screening test 2: doxorubicin cytotoxicity, neutral red cell viability; conditions: 24 hours; for increase of cell mortality induced by dxr (dxr cytotoxicity enhancement): A375, paniceins 10 μM, dxr 1.5 μM
Method: (§1) Cells were grown in 96 well plates in complete DMEM medium to achieve 60% to 70% confluence. Medium was then removed and replaced with 100 μL/well of complete DMEM medium containing paniceins at 10 μM (or at increasing concentrations for EC50 measurement) or DMSO as control. After 2 hours, 100 μL of complete DMEM medium containing doxorubicin was added in half wells to obtain the final concentration of 2 μM for MDA-MB-435 and MeWo, and 1.5 μM for A375. The cell viability was measured after 24 hours. Effect of compounds P2, P3, P4 and P5 on cell viability, and dose-response for compound P5 are shown for MDA-MB-435 (A), MeWo (B) and A375 (C). D. Enhancement of dxr cytotoxicity by paniceins is represented. The means (+/−sem) of at least three independent experiments are reported.
(§2) Melanoma cells MDA-MB-435, Mewo and A375 were seeded on 96-well plates and grown 48 hours in complete DMEM medium to achieve 60% to 70% confluence. Medium was then removed and replaced with 100 μL/well of complete DMEM medium containing the compounds of interest at defined concentration or DMSO as control. After 2 hours, 100 µL of complete DMEM medium containing doxorubicin was added in half wells to obtain 2 μM doxorubicin. Plates were incubated at 37° C. in a 5% CO2/95% air water-saturated atmosphere. After 24 hours, microplates were incubated 3 hours at 37° C. with 100 μL/wells neutral red (NR) solution (50 μg/mL in DMEM). After a rapid wash with PBS at 4° C., microplates were gently tapped several times on absorbent paper. Cells were solubilized with 100 μL of a solution containing 1% acetic acid, 49% H2O, 50% ethanol by vortexing 3 minutes at 700 rpm and the absorbance at 600 nm was measured. EC50 were calculated using Regressi software.

MDA-MB-435 cells = assay: as above; conditions: 24 hours; for increase of cell mortality induced by dxr (dxr cytotoxicity enhancement): MDA-MB-435, paniceins 10 μM, dxr 2 μM
Method: as §1, §2

MeWo cells = assay: as above; conditions: dxr 2 μM, 24 hours; for increase of cell mortality induced by dxr (dxr cytotoxicity enhancement): paniceins 10 μM
Method: as §1, §2

[1] = target: T1, human Patched (hPtc) expressed in yeasts (Homo sapiens, UniProt Q13635); assay: Resistance of hPtc-expressing yeasts to other chemotherapeutic agents (yeast growth, absorbance 600 nm); conditions: 10 μM paniceins; for inhibition of the resistance of yeasts to vemurafenib: 10 μM vemurafenib; for inhibition of the resistance of yeasts to cisplatine: 50 μM cisplatine; for inhibition of the resistance of yeasts to dacarbazine: 2 mM dacarbazine
T1 construct: MAP; expressed in transfected cells; host or cells: Saccharomyces cerevisiae K699
T1 sequence (Q13635 1-1447): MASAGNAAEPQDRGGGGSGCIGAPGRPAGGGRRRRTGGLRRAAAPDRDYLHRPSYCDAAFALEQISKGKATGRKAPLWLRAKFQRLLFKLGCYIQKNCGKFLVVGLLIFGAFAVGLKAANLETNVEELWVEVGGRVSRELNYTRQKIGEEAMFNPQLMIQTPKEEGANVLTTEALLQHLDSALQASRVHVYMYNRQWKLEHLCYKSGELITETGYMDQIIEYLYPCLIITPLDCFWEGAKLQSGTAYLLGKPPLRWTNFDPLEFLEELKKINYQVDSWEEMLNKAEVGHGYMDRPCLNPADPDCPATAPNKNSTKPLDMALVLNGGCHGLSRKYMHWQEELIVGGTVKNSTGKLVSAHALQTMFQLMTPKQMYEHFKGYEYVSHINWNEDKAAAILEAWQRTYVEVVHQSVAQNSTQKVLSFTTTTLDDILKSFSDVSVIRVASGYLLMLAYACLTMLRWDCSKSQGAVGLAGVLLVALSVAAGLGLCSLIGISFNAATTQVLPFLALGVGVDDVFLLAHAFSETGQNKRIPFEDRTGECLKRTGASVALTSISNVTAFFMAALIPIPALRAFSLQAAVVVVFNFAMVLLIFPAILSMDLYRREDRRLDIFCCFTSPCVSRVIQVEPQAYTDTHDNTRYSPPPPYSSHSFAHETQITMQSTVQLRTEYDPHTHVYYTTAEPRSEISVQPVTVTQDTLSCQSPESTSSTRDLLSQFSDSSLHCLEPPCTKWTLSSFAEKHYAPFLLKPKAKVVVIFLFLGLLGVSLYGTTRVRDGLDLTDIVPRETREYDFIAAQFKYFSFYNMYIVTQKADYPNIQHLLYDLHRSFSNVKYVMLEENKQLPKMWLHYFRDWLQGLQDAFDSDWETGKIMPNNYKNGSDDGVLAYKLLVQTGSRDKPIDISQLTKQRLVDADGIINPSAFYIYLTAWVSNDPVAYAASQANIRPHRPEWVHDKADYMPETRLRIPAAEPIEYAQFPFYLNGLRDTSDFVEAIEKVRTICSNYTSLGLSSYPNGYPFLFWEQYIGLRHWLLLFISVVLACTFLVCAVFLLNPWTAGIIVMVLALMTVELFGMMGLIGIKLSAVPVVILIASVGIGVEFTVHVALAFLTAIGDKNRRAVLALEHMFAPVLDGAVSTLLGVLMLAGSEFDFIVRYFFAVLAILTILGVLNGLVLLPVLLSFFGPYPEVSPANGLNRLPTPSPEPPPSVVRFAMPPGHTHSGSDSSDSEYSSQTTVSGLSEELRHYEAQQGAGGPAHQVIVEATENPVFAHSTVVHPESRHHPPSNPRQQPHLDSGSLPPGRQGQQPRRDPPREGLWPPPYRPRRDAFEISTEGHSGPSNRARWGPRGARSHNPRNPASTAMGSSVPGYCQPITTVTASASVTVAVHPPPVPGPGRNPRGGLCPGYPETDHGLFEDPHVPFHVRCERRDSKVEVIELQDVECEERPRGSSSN
Method: Paniceins were added at a final concentration of 10 μM to the yeast growth medium containing 2 mM of dacarbazine (A), 50 μM of cisplatine (B), or 10 μM of vemurafenib (C). The growth of hPtc-expressing-yeasts was measured by absorbance at 600 nm.
The expression of human Patched in yeasts confers to these yeasts the ability to grow in presence of other chemotherapeutic agents currently used to treat melanoma such as dacarbazine or cisplatine.

SMILES	increase of cell mortality induced by dxr (dxr cytotoxicity enhancement) (A375 cells)	increase of cell mortality induced by dxr (dxr cytotoxicity enhancement) (MDA-MB-435 cells)	increase of cell mortality induced by dxr (dxr cytotoxicity enhancement) (MeWo cells)	inhibition of the resistance of yeasts to vemurafenib [1]	inhibition of the resistance of yeasts to cisplatine [1]	inhibition of the resistance of yeasts to dacarbazine [1]	pEC50 (A375 cells; Homo sapiens, A-375, A375, dxr 1.5 μM, read-out: concentration inducing 50% of dxr cytotoxicity enhancement (EC50))	pEC50 (MDA-MB-435 cells; Homo sapiens, MDA-MB-435, dxr 2 μM, read-out: concentration inducing 50% of dxr cytotoxicity enhancement (EC50))	pEC50 (MeWo cells; Homo sapiens, read-out: concentration inducing 50% of dxr cytotoxicity enhancement (EC50))
C/C(=C\Cc1cc(O)ccc1O)CCc1c(C)c(O)c(O)c(C=O)c1C [P2, Panicein C]	no effect	about 2 times	about 2 times	inhibits the resistance	inhibits the resistance	inhibits the resistance			
C/C(=C\Cc1cc(O)ccc1O)CCc1c(C)cc(O)c(C=O)c1C [P3, Panicein B3]	no effect	about 2 times	about 2 times	inhibits the resistance	inhibits the resistance	inhibits the resistance			
Cc1cc(O)c(C=O)c(C)c1CCC1(C)C=Cc2cc(O)ccc2O1 (stereo not shown) [P4, Panicein B2]	no effect	about 2 times	about 2 times						
COc1cc(C)c(CC/C(C)=C/Cc2cc(O)ccc2O)c(C)c1C [P5, Panicein A hydroquinone]	about 2 times			inhibits the resistance	inhibits the resistance	inhibits the resistance	4.65	5.03	5.30
